Measurements taken from ChEMBL document CHEMBL1649413, “Structure-activity relationship of 4(5)-aryl-2-amino-1H-imidazoles, N1-substituted 2-aminoimidazoles and imidazo[1,2-a]pyrimidinium salts as inhibitors of biofilm formation by Salmonella typhimurium and Pseudomonas aeruginosa” (J Med Chem, 2011).
Calls of active or inactive are those of the source. No cut-off for these calls is given here.

Tests used:
Pseudomonas aeruginosa [1] = experiment: Antimicrobial activity against Pseudomonas aeruginosa assessed as inhibition of planktonic growth at 40 uM at 25 degC after 24 hrs; type: functional, organism-based
Pseudomonas aeruginosa [2] = experiment: Antimicrobial activity against Pseudomonas aeruginosa assessed as inhibition of planktonic growth at 20 uM at 25 degC after 24 hrs; type: functional, organism-based
Salmonella typhimurium [3] = experiment: Antimicrobial activity against Salmonella Typhimurium ATCC 14028 assessed as inhibition of planktonic growth at 20 uM at 25 degC after 24 hrs; type: functional, organism-based; settings: Salmonella enterica subsp. enterica serovar Typhimurium
Pseudomonas aeruginosa [4] = experiment: Antibiofilm activity in Pseudomonas aeruginosa assessed as inhibition of biofilm formation at 25 degC after 24 hrs; type: functional, organism-based
Salmonella typhimurium [5] = experiment: Antimicrobial activity against Salmonella Typhimurium ATCC 14028 assessed as inhibition of planktonic growth at 40 uM at 25 degC after 24 hrs; type: functional, organism-based; settings: Salmonella enterica subsp. enterica serovar Typhimurium
Salmonella typhimurium [6] = experiment: Antibiofilm activity in Salmonella Typhimurium ATCC 14028 assessed as inhibition of biofilm formation at 25 degC after 24 hrs; type: functional, organism-based, Salmonella enterica subsp. enterica serovar Typhimurium; settings: Salmonella enterica, ATCC 14028, 24 h
Salmonella typhimurium [7] = experiment: Antimicrobial activity against Salmonella Typhimurium ATCC 14028 assessed as inhibition of planktonic growth at 4 uM at 25 degC after 24 hrs; type: functional, organism-based; settings: Salmonella enterica subsp. enterica serovar Typhimurium
Salmonella typhimurium [8] = experiment: Antimicrobial activity against Salmonella Typhimurium ATCC 14028 assessed as inhibition of planktonic growth at 400 uM at 25 degC after 24 hrs; type: functional, organism-based; settings: Salmonella enterica subsp. enterica serovar Typhimurium
Pseudomonas aeruginosa [9] = experiment: Antimicrobial activity against Pseudomonas aeruginosa assessed as inhibition of planktonic growth at 10 uM at 25 degC after 24 hrs; type: functional, organism-based
Salmonella typhimurium [10] = experiment: Antimicrobial activity against Salmonella Typhimurium ATCC 14028 assessed as inhibition of planktonic growth at 10 uM at 25 degC after 24 hrs; type: functional, organism-based; settings: Salmonella enterica subsp. enterica serovar Typhimurium
Pseudomonas aeruginosa [11] = experiment: Antimicrobial activity against Pseudomonas aeruginosa assessed as inhibition of planktonic growth at 5 uM at 25 degC after 24 hrs; type: functional, organism-based

SMILES	IC50 (Pseudomonas aeruginosa [4]) [µM]	IC50 (Salmonella typhimurium [6]) [µM]	inhibition (Pseudomonas aeruginosa [1])	inhibition (Pseudomonas aeruginosa [2])	inhibition (Salmonella typhimurium [3])	inhibition (Salmonella typhimurium [5])	inhibition (Salmonella typhimurium [7])	inhibition (Salmonella typhimurium [8])	inhibition (Pseudomonas aeruginosa [9])	inhibition (Salmonella typhimurium [10])	inhibition (Pseudomonas aeruginosa [11])
CCCCCCCC[n+]1c(-c2ccc(SC)cc2)cn2cccnc21.[O-][Cl+3]([O-])([O-])[O-]	9.3	20.7	Active	inactive	Active	Active	–	–	–	–	–
Nc1nc(-c2ccccc2)c(-c2ccc(C(F)(F)F)cc2)[nH]1	–	29.2	–	–	–	inactive	inactive	Active	–	–	–
CCCCn1c(-c2ccc(-c3ccccc3)cc2)cnc1N	41.6	21.1	–	–	Active	Active	–	–	–	–	–
CCCCCCCCn1c(-c2ccccc2)cnc1N	18.5	11.9	inactive	inactive	Active	–	–	–	–	inactive	–
Nc1ncc(-c2ccc(-c3ccccc3)cc2)n1C1CCCCCCC1	3.2	22.9	inactive	inactive	Active	–	–	–	inactive	–	inactive
CCCCCCCCCCCCn1c(-c2ccc(-c3ccccc3)cc2)cnc1N	> 400	167	inactive	–	–	–	–	–	–	–	inactive
CCCCn1c(-c2ccccc2)cnc1N	2.1	51.9	–	–	–	–	–	–	inactive	–	inactive
Nc1ncc(-c2ccc(-c3ccccc3)cc2)n1C1CCCCC1	69.7	12.6	–	–	Active	Active	–	–	–	inactive	–
CCCCCCCCCCCCCn1c(-c2ccc(Cl)cc2)cnc1N	33.9	19.5	–	–	inactive	inactive	–	–	–	–	–
CCCCCCCn1c(-c2ccccc2)cnc1N	6.8	12.2	inactive	inactive	–	–	–	–	–	–	inactive
CCCCCCCC[n+]1c(-c2ccc(OC)cc2)cn2cccnc21.[O-][Cl+3]([O-])([O-])[O-]	8.7	34.8	inactive	inactive	Active	Active	–	–	inactive	–	–
Nc1ncc(-c2ccc(Cl)cc2)n1C1CCCCCCC1	48.7	12.9	–	–	Active	Active	–	–	–	inactive	–
CCCCCCCCn1c(-c2cccc(Br)c2)cnc1N	40.6	11.2	Active	inactive	Active	–	–	–	–	inactive	–
CC(C)n1c(-c2ccccc2)cnc1N	4.5	176	–	–	–	–	–	–	inactive	–	inactive
CCCCCCCCn1c(-c2ccc(S(C)(=O)=O)cc2)cnc1N	4.9	29.1	–	inactive	inactive	Active	–	–	–	–	–
CCCCCCCC[n+]1c(-c2ccc(F)cc2)cn2cccnc21.[O-][Cl+3]([O-])([O-])[O-]	19.5	35.7	Active	inactive	inactive	inactive	–	–	–	–	–
CCCCCCCC[n+]1c(-c2ccc([N+](=O)[O-])cc2)cn2cccnc21.[O-][Cl+3]([O-])([O-])[O-]	18.7	63.6	Active	inactive	–	–	–	–	inactive	–	–
Nc1ncc(-c2ccc(Cl)cc2)n1C1CCCCC1	11.2	33.2	inactive	inactive	–	–	–	–	–	–	inactive
Nc1ncc(-c2ccc(Cl)cc2)n1C1CCCCCC1	4	15.7	–	inactive	–	–	–	–	inactive	–	inactive
Nc1ncc(-c2ccc(-c3ccccc3)cc2)n1C1CCCCCC1	6.6	12.5	–	–	Active	Active	–	–	–	Active	–
Nc1nc(-c2ccc(F)cc2)c(C(=O)Nc2ccccc2)[nH]1	–	182	–	–	–	inactive	inactive	Active	–	–	–
CCCCCCCCCCCCCn1c(-c2ccc(-c3ccccc3)cc2)cnc1N	> 400	> 800	inactive	–	–	–	–	–	–	–	inactive

Now those with a lower IC50 (Salmonella typhimurium [6]), led by results:

IC50 (Pseudomonas aeruginosa [4]) [µM]	IC50 (Salmonella typhimurium [6]) [µM]	SMILES	inhibition (Pseudomonas aeruginosa [1])	inhibition (Pseudomonas aeruginosa [2])	inhibition (Salmonella typhimurium [3])	inhibition (Salmonella typhimurium [5])	inhibition (Salmonella typhimurium [7])	inhibition (Salmonella typhimurium [8])	inhibition (Pseudomonas aeruginosa [9])	inhibition (Salmonella typhimurium [10])	inhibition (Pseudomonas aeruginosa [11])
2.6	9.5	CCCCCCCn1c(-c2ccc(Cl)cc2)cnc1N	–	–	–	–	inactive	–	Active	Active	inactive
15	6.1	CCCCCCCCCCn1c(-c2ccccc2)cnc1N	–	inactive	Active	–	inactive	–	inactive	Active	–
49.7	6.2	CCCCCCCCCCCCn1c(-c2ccc(Cl)cc2)cnc1N	–	–	inactive	–	inactive	–	–	inactive	–
8	4	CCCCCCCCCn1c(-c2ccc(Cl)cc2)cnc1N	–	Active	Active	–	inactive	–	inactive	Active	–
44	4.1	CCCCCCCCCCCn1c(-c2ccc(Cl)cc2)cnc1N	–	–	Active	–	inactive	–	–	Active	–
4.9	10.8	CCCCCCCCn1c(-c2ccc(F)cc2)cnc1N	–	Active	Active	–	–	–	Active	inactive	inactive
16.3	7.2	CCCCCCCCCCCn1c(-c2ccccc2)cnc1N	–	inactive	–	Active	inactive	–	inactive	Active	–
12.7	3.8	CCCCCCCC[n+]1c(-c2ccc(F)c(F)c2)cn2cccnc21.[O-][Cl+3]([O-])([O-])[O-]	Active	Active	–	–	inactive	–	Active	Active	–
2.8	6.7	CCCCCCCCn1c(-c2ccc(SC)cc2)cnc1N	–	Active	–	–	inactive	–	Active	Active	inactive
–	5	CCCCCCCC[n+]1c(-c2ccc(-c3ccc(-c4ccccc4)cc3)cc2)cn2cccnc21.[O-][Cl+3]([O-])([O-])[O-]	–	–	–	–	inactive	–	–	Active	–
5.4	4.9	CCCCCCn1c(-c2ccc(Cl)cc2)cnc1N	–	–	–	–	Active	–	inactive	Active	inactive
7	7.3	CCCCCCCC[n+]1c(-c2cccc(Br)c2)cn2cccnc21.[O-][Cl+3]([O-])([O-])[O-]	Active	inactive	Active	–	–	–	–	inactive	–
–	3.7	CCCCCCCCn1c(-c2ccc(Cl)c(Cl)c2)cnc1N	–	–	–	–	inactive	–	–	Active	–
8.9	3.3	CCCCCCCCn1c(-c2ccc(-c3ccccc3)cc2)cnc1N	–	inactive	Active	Active	inactive	–	inactive	–	–
25.2	9.3	CCCCCCCn1c(-c2ccc(-c3ccccc3)cc2)cnc1N	Active	Active	Active	–	–	–	–	inactive	–
17.6	6.6	CCCCCCCCn1c(-c2cccc3ccccc23)cnc1N	–	Active	–	–	inactive	–	inactive	inactive	–
15.1	9.8	O=[N+]([O-])c1ccc(-c2cn3cccnc3[n+]2C2CCCCCCCCCCC2)cc1.[O-][Cl+3]([O-])([O-])[O-]	Active	Active	inactive	–	–	–	inactive	inactive	–
22.3	4.1	CCCCCCCCCCn1c(-c2ccc(Cl)cc2)cnc1N	inactive	inactive	–	–	inactive	–	–	Active	–
27.3	6	CCCCCCCCCCCCCn1c(-c2ccccc2)cnc1N	inactive	inactive	–	Active	inactive	–	–	Active	–
